From patent publication US20050192279A1, “Pyridazinones as antagonists of alpha4 integrins” (priority 2004, published 2005)

Columns and labels:
α4β1 = molecular target: T1, α4β1 (Homo sapiens, UniProt P05556+P13612); assay: Ramos Cell Adhesion Assay (α4β1 Mediated Adhesion/VCAM-1); format: cell-based; conditions: Ramos cell adhesion to hVCAM-1; read-out: α4β1 IC50
T1 construct: Ramos Cell Adhesion Assay (α4β1 Mediated Adhesion/VCAM-1); endogenous in cells; host or cells: Ramos cells
Experimental: Ramos Cell Adhesion Assay (α4β1 Mediated Adhesion/VCAM-1)
Immulon 96 well plates (Dynex) were coated with 100 μL recombinant hVCAM-1 at 4.0 μg/mL in 0.05 M NaCO3 buffer pH 9.0 overnight at 4° C. (R&D Systems). Plates were washed 2 times in PBS with 1% BSA and blocked for 1 h @ room temperature in this buffer. PBS was removed and compounds to be tested (50 μL) were added at 2× concentration. Ramos cells, (50 μL at 2×10^6/mL) labeled with 5 μM Calcein AM (Molecular Probes) for 1 h at 37° C., were added to each well and allowed to adhere for 1 h at room temperature. Plates were washed 4× in PBS+1% BSA and cells were lysed for 15 minutes in 100 μL of 1 M Tris pH 8.0 with 1% SDS.

human α4β7 integrin = molecular target: T2, human α4β7 integrin (Homo sapiens, UniProt P13612+P26010); assay: α4β7-K562 Cell Adhesion Assay (α4β7 Mediated Adhesion/MAdCAM-1); format: cell-based; conditions: α4β7-K562 cell adhesion to hMAdCAM-1; read-out: α4β7 IC50
T2 construct: expressed in transfected cells; host or cells: K562 cells, stably transfected
T2 sequence (P13612 34-1032): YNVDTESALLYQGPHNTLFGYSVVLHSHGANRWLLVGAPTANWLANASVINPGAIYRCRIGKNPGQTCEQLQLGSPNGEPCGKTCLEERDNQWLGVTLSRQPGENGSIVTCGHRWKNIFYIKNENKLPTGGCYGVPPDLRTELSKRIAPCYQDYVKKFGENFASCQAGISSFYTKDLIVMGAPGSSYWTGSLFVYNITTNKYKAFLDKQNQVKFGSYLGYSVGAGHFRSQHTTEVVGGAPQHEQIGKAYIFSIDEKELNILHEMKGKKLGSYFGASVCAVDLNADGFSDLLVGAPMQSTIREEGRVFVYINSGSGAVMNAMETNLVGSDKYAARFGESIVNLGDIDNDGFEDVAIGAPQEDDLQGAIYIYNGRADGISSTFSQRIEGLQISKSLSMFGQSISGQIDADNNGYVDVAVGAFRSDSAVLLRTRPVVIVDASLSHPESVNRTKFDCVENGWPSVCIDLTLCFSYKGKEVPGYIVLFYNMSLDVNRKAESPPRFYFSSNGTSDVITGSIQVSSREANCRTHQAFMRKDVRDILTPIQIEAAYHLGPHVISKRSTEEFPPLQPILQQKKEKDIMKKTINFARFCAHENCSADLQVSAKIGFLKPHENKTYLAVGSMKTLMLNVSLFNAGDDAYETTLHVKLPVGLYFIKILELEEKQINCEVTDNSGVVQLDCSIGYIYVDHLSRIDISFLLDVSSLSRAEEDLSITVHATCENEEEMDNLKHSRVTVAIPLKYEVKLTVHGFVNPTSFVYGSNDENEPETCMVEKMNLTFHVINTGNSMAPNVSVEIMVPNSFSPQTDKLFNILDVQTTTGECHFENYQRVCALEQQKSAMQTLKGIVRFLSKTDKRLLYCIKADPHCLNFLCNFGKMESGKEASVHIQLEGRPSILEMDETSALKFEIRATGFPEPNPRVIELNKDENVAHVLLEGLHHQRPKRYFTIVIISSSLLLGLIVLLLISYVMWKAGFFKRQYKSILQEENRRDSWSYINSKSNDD
T2 sequence (P26010 20-798): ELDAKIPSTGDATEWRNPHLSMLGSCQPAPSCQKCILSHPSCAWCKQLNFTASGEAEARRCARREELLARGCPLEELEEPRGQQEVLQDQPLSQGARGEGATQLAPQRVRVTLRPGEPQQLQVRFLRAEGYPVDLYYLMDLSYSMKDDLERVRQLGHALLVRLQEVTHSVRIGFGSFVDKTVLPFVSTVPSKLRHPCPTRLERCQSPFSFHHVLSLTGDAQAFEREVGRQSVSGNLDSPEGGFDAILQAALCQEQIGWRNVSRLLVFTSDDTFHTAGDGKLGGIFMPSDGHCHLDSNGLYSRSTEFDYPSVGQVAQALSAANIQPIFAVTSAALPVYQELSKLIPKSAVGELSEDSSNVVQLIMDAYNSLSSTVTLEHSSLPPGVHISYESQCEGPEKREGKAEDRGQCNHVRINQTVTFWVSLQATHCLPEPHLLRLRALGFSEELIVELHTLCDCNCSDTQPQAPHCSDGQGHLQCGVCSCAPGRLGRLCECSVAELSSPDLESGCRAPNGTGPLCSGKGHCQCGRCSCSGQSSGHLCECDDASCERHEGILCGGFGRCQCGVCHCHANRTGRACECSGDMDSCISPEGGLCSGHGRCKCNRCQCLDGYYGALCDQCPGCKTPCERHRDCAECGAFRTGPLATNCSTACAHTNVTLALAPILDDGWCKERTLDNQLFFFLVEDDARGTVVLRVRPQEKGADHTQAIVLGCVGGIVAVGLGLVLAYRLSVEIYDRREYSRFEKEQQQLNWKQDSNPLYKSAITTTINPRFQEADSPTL
Experimental: α4β7-K562 Cell Adhesion Assay (α4β7 Mediated Adhesion/MAdCAM-1)
M2 anti-FLAG Antibody Coated 96-well plates (Sigma) were coated for 1 hour at 4° C. with 2-8 μl/well recombinant FLAG-hMAdCAM-1 contained in 100 μL of Dulbecco's PBS, pH 7.4, with 1% BSA and 1 mM Mn ^+2 (PBS-BSA-Mn). Plates were washed once with PBS-BSA-Mn. Buffer was removed and compounds to be tested (50 μL) were added at 2× concentration. Stably transfected K562 cells expressing human α4β7 integrin, (50 μL at 2×10^6/mL) that had been labeled with 100 μg/ml carboxymethyl fluorescein diacetate succinimidyl ester (CFDA-SE; Molecular Probes) for 15 min at 37° C. were added to each well and allowed to adhere for 1 h at room temperature. Plates were washed 4× in PBS-BSA-Mn and then cells were lysed for 2 minutes by addtion of 100 μL of PBS without Ca, Mg supplemented with 0.1 M NaOH.

T1 sequence (P05556 21-798, one chain of several): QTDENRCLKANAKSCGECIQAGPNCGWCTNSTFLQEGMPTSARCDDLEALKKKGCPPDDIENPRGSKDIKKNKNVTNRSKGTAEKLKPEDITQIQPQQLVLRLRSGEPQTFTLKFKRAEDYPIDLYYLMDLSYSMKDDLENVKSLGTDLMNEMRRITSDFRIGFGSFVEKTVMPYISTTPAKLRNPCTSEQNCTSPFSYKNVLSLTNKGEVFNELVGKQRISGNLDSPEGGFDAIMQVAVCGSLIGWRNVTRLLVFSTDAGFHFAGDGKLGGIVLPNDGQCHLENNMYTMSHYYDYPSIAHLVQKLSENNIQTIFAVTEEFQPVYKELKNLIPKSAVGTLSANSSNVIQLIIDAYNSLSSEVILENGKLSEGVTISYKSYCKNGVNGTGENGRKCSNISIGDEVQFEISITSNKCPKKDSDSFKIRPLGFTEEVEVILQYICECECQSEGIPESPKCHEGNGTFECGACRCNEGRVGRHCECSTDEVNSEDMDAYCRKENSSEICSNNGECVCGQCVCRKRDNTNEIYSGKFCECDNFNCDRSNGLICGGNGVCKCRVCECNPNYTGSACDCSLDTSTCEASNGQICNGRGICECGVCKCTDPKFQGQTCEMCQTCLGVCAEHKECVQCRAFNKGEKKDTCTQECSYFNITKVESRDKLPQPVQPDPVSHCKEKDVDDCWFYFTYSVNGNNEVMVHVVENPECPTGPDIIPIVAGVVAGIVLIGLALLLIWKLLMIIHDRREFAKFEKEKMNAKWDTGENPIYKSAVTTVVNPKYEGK

IC50 (α4β1) | IC50 (human α4β7 integrin) | SMILES
> 5000 nM | 922 nM | COc1cc(N)c(Cl)cc1C(=O)N[C@@H](Cc1ccc(-c2c(OC)cnn(C)c2=O)cc1)C(=O)O [Cpd 188]
> 5000 nM | 999 nM | COc1cnn(C)c(=O)c1-c1ccc(C[C@H](NC(=O)c2cccnc2O)C(=O)O)cc1 [Cpd 191]
> 5000 nM | 750 nM | COc1cnn(C)c(=O)c1-c1ccc(CC(NC(=O)C(N)C(C)C)C(=O)O)cc1 (stereo not shown) [Cpd 181, 2-(2-Amino-3-methyl-butyrylamino)-3-[4-(5-methoxy-2-methyl-3-oxo-2,3-dihydro-pyridazin-4-yl)-phenyl]-propionic acid]
> 5000 nM | 813 nM | COc1cnn(C)c(=O)c1-c1ccc(C[C@H](NC(=O)OC(C)C)C(=O)O)cc1 [Cpd 184]
– | 805 nM | COc1cnn(C)c(=O)c1-c1ccc(C[C@H](NC(=O)OC(C)(C)C)C(=O)O)cc1 [Cpd 183]
– | 92 nM | COc1cnn(C)c(=O)c1-c1ccc(C[C@H](NC(=O)C2(OCc3ccccc3)CC2)C(=O)O)cc1 [Cpd 230]
– | 706 nM | COC(=O)N[C@@H](Cc1ccc(-c2c(OC)cnn(C)c2=O)cc1)C(=O)O [Cpd 178]
– | 471 nM | COc1cnn(C2CCCCC2)c(=O)c1-c1ccc(C[C@H](NC(=O)c2c(Cl)cccc2Cl)C(=O)O)cc1 [Cpd 165]

More lines, now with the values behind:

SMILES | IC50 (α4β1) | IC50 (human α4β7 integrin)
Cn1ncc(OC(F)F)c(-c2ccc(C[C@H](NC(=O)c3c(Cl)cccc3Cl)C(=O)O)cc2)c1=O [Cpd 112, (S)-2-(2,6-Dichloro-benzoylamino)-3-[4-(5-difluoromethoxy-2-methyl-3-oxo-2,3-dihydro-pyridazin-4-yl)-phenyl]-propionic acid] | 289 nM | 85 nM
COc1cnn(C)c(=O)c1-c1ccc(C[C@H](NC(=O)[C@@H](O)C(C)C)C(=O)O)cc1 [Cpd 127] | > 1000 nM | 133 nM
COc1cnn(C)c(=O)c1-c1ccc(CC(NC(=O)c2c(Cl)cccc2Cl)C(=O)OCCO)cc1 (stereo not shown) [Cpd 97, 2-(2,6-Dichloro-benzoylamino)-3-[4-(5-methoxy-2-methyl-3-oxo-2,3-dihydro-pyridazin-4-yl)-phenyl]-propionic acid 2-hydroxy-ethyl ester] | 3240 nM | 58 nM
COc1cnn(C)c(=O)c1-c1ccc(C[C@H](NC(=O)[C@H](C(C)C)N(C)C(=O)OC(C)(C)C)C(=O)O)cc1 [Cpd 48] | 974 nM | 13 nM
COc1cnn(C)c(=O)c1-c1ccc(C[C@H](NC(=O)C2(NC(C)C)CC2)C(=O)O)cc1 [Cpd 3] | > 5000 nM | –
COc1cnn(C)c(=O)c1-c1ccc(CC(NC(=O)C(NC(=O)OC(C)(C)C)C(C)C)C(=O)O)cc1 (mixture of isomers) [Cpd 58] | > 5000 nM | 18 nM
COc1cnn(C)c(=O)c1-c1ccc(C[C@H](NC(=O)[C@@H]2C3CCC(CC3)N2C(=O)OCc2ccccc2)C(=O)O)cc1 [Cpd 103] | 629 nM | 67 nM
COc1cnn(C)c(=O)c1-c1ccc(C[C@H](NC(=O)c2c(Cl)c[n+]([O-])cc2Cl)C(=O)O)cc1 [Cpd 9] | 23 nM | 2 nM
Cn1ncc(OC2CCCCC2)c(-c2ccc(C[C@H](NC(=O)c3c(Cl)cccc3Cl)C(=O)O)cc2)c1=O [Cpd 41] | 152 nM | 11 nM
Cn1ncc(OCC(F)(F)F)c(-c2ccc(C[C@H](NC(=O)c3c(Cl)cccc3Cl)C(=O)O)cc2)c1=O [Cpd 37] | 474 nM | 9 nM
COc1cnn(C)c(=O)c1-c1ccc(C[C@H](NC(=O)C23CCC(CC2)CN3C(=O)CCc2cnc[nH]2)C(=O)O)cc1 [Cpd 122] | 142 nM | 118 nM
COc1cnn(C)c(=O)c1-c1ccc(C[C@H](NC(=O)c2c(Cl)cccc2Cl)C(=O)OCCN(C)C)cc1 [Cpd 34] | 250 nM | 8 nM
CCOC(=O)[C@H](Cc1ccc(-c2c(OC)cnn(C)c2=O)cc1)NC(=O)c1c(Cl)cccc1Cl [Cpd 1] | > 5000 nM | –
COc1cnn(C)c(=O)c1-c1ccc(C[C@H](NC(=O)C2(NC(C)C)CC2)C(=O)O)cc1 [Cpd 146] | 218 nM | –
